Measured values published in US10166216B2 (Rigel Pharmaceuticals, Inc., priority 2006, dated 2019).

Target: Axl (Homo sapiens (Human), UniProt P30530)
Assay: Phospho-Akt in-cell Western assay (Axl-antibody cross-linking stimulation)
Assay type: cell-based
Conditions: inhibition of Axl activity
How it was run: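 HeLa cells on poly-L-lysine, starved 24 hrs with Axl/Fc, pre-treated with compound 1 hr at 37° C., then stimulated 5 min with Axl primary/secondary antibody cluster. Fixed cells probed for phospho-Akt by chemiluminescent in-cell Western; signal normalized to crystal violet cell number.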

[1] = Hela cells, phospho-Akt readout, Table 5, formula (Ia3)
[2] = Hela cells, phospho-Akt readout, Table 1, formula (Ia1)
[3] = phospho-Akt in-cell Western assay

Axl, sequence (P30530 26-894): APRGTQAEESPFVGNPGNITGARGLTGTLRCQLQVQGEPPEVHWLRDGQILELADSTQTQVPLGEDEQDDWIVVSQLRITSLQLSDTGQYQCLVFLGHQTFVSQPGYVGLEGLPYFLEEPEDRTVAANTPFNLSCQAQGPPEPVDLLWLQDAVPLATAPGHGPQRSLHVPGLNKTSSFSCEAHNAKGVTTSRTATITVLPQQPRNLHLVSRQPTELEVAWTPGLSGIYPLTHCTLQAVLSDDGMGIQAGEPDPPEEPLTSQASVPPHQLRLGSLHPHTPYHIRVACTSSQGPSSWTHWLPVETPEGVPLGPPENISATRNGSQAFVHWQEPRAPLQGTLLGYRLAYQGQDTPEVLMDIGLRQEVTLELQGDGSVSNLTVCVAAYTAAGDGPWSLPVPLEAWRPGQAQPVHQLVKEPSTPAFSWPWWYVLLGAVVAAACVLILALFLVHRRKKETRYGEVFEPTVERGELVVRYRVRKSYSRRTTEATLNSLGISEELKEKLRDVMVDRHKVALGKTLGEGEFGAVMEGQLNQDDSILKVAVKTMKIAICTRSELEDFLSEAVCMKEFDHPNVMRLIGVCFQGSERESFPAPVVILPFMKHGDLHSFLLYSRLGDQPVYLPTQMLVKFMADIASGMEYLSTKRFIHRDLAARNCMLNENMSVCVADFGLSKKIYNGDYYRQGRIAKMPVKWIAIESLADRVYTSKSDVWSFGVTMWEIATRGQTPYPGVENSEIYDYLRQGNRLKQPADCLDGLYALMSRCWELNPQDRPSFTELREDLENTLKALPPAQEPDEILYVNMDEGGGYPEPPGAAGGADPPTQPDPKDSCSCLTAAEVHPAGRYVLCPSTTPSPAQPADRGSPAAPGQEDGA

IC50 [2]	IC50 [3]	SMILES	other results
		CC(C)c1ccc(-n2nc(Nc3ccc(N4CCOCC4)cc3)nc2N)cc1 [Compound 218, 1-(4-isopropylphenyl)-N^3-(4-morpholinophenyl)-1H-1,2,4-triazole-3,5-diamine]	IC50 [1]: > 20 µM
> 20 µM		COc1cc2c(-n3nc(Nc4ccc(OCCN5CCCC5)cc4)nc3N)ncnc2cc1OCc1ccccc1 [Compound 104, 1-(7-(benzyloxy)-6-methoxyquinazolin-4-yl)-N^3-(4-(2-(pyrrolidin-1-yl)ethoxy)phenyl)-1H-1,2,4-triazole-3,5-diamine]	
	> 20 µM	COc1cc2ncnc(-n3nc(Nc4ccc(Cl)c(N5CCN(C(C)=O)CC5)c4)nc3N)c2cc1OC [Compound 120, 1-(4-(5-(5-amino-1-(6,7-dimethoxyquinazolin-4-yl)-1H-1,2,4-triazol-3-ylamino)-2-chlorophenyl)piperazin-1-yl)ethanone]	
	< 1 µM	COc1cc2ncnc(-n3nc(Nc4ccc(N5CCN(C6CCCCCC6)CC5)cc4)nc3N)c2cc1OC [Compound 110, N^3-(4-(4-cycloheptylpiperazin-1-yl)phenyl)-1-(6,7-dimethoxyquinazolin-4-yl)-1H-1,2,4-triazole-3,5-diamine]	
> 20 µM		Nc1nc(Nc2ccc(OCCN3CCCC3)cc2)nn1-c1nc2ccccc2[nH]1 [Compound 31, 1-(1H-benzo[d]imidazol-2-yl)-N^3-(4-(2-(pyrrolidin-1-yl)ethoxy)phenyl)-1H-1,2,4-triazole-3,5-diamine]	
	< 1 µM	Cc1cc(Nc2nc(N)n(-c3nnc(C)c4ccsc34)n2)ccc1N1CCN([C@H]2C[C@@H]3CC[C@H]2C3)CC1 [Compound 232, 1-(4-methylthieno[3,2-d]pyridazin-7-yl)-N^3-(3-methyl-4-(4-((1S,2S,4R)-bicyclo[2.2.1]heptan-2-yl)piperazin-1-yl)phenyl)-1H-1,2,4-triazole-3,5-diamine]	
< 1 µM		Nc1nc(Nc2ccc(OCCN3CCCC3)cc2)nn1-c1ncnc2sc3c(c12)CCC3 [Compound 66, 1-(6,7-dihydro-5H-cyclopenta[4,5]thieno[2,3-d]pyrimidin-4-yl)-N^3-(4-(2-(pyrrolidin-1-yl)ethoxy)phenyl)-1H-1,2,4-triazole-3,5-diamine]	
	1 to 10 µM	Cc1csc2c(-n3nc(Nc4ccc(N5CCN([C@H]6CC7CCC6C7)CC5)cc4)nc3N)nc(-c3ccccc3Cl)nc12 (stereo partly drawn) [Compound 235, 1-(7-methyl-2-(2-chlorophenyl)thieno[3,2-d]pyrimidin-4-yl)-N^3-(4-(4-((2S)-bicyclo[2.2.1]heptan-2-yl)piperazin-1-yl)phenyl)-1H-1,2,4-triazole-3,5-diamine]	
	< 1 µM	Cc1nnc(-n2nc(Nc3ccc(N4CCN([C@H]5C[C@@H]6CC[C@H]5C6)CC4)c(F)c3)nc2N)c2sccc12 [Compound 226, 1-(4-methylthieno[3,2-d]pyridazin-7-yl)-N^3-(3-fluoro-4-(4-((1S,2S,4R)-bicyclo[2.2.1]heptan-2-yl)piperazin-1-yl)phenyl)-1H-1,2,4-triazole-3,5-diamine]	
< 1 µM		Nc1nc(Nc2ccc(OCCN3CCCC3)cc2)nn1-c1nc(Cl)nc2ccccc12 [Compound 37, 1-(2-chloroquinazolin-4-yl)-N^3-(4-(2-(pyrrolidin-1-yl)ethoxy)phenyl)-1H-1,2,4-triazole-3,5-diamine]	
	< 1 µM	Cc1csc2c(-n3nc(Nc4ccc(N5CCN(C6CC7CCC6C7)CC5)cc4)nc3N)nc(-c3cccc(C#N)c3)nc12 (stereo not shown) [Compound 234, 1-(7-methyl-2-(3-cyanophenyl)thieno[3,2-d]pyrimidin-4-yl)-N^3-(4-(4-(bicyclo[2.2.1]heptan-2-yl)piperazin-1-yl)phenyl)-1H-1,2,4-triazole-3,5-diamine]	
	< 1 µM	CC(C)(C)c1cc2ncnc(-n3nc(Nc4ccc(N5CCN(C6CC7CCC6C7)CC5)cc4)nc3N)c2s1 (stereo not shown) [Compound 187, 1-(6-(1,1-dimethylethyl)thieno[3,2-d]pyrimidin-4-yl)-N^3-(4-(4-(bicyclo[2.2.1]heptan-2-yl)-piperazin-1-yl)phenyl)-1H-1,2,4-triazole-3,5-diamine]	
	< 1 µM	Nc1nc(Nc2ccc(N3CCN([C@H]4C[C@@H]5CC[C@H]4C5)CC3)cc2)nn1-c1nc(Cl)nc2ccsc12 [Compound 179, 1-(2-chlorothieno[3,2-d]pyrimidin-4-yl)-N^3-(4-(4-((1S,2S,4R)-bicyclo[2.2.1]heptan-2-yl)-piperazin-1-yl)phenyl)-1H-1,2,4-triazole-3,5-diamine]	
< 1 µM		Nc1nc(Nc2ccc(OCCN3CCCC3)cc2)nn1-c1nc(Cl)nc2sccc12 [Compound 176, 1-(2-chlorothieno[2,3-d]pyrimidin-4-yl)-N^3-(4-(2-pyrrolidin-1-ylethoxy)phenyl)-1H-1,2,4-triazole-3,5-diamine]	
> 20 µM		CC1CCCN1CCOc1ccc(Nc2nc(N)n(-c3ccccc3F)n2)cc1 (stereo not shown) [Compound 27, 1-(2-fluorophenyl)-N^3-(4-(2-(2-methylpyrrolidin-1-yl)ethoxy)phenyl)-1H-1,2,4-triazole-3,5-diamine]	
< 1 µM		Nc1nc(Nc2ccc(OCCN3CCCC3)c(Cl)c2)nn1-c1nccc2ccccc12 [Compound 62, N^3-(3-chloro-4-(2-(pyrrolidin-1-yl)ethoxy)phenyl)-1-(isoquinolin-1-yl)-1H-1,2,4-triazole-3,5-diamine]	

IC50 [2]	IC50 [3]	SMILES	other results
	> 20 µM	COc1cc2ncnc(-n3nc(Nc4ccc(N5CCN(C6CCCCCCC6)CC5)cc4)nc3N)c2cc1OC [Compound 112, N^3-(4-(4-cyclooctylpiperazin-1-yl)phenyl)-1-(6,7-dimethoxyquinazolin-4-yl)-1H-1,2,4-triazole-3,5-diamine]	
	< 1 µM	CN1CCN(c2ccc(Nc3nc(N)n(-c4nccc5[nH]c(=O)ccc45)n3)cc2F)CC1 [Compound 113, 5-(5-amino-3-(3-fluoro-4-(4-methylpiperazin-1-yl)phenylamino)-1H-1,2,4-triazol-1-yl)-1,6-naphthyridin-2(1H)-one]	
		CCOC(=O)c1ccc(Nc2nc(NC)n(-c3ccccc3)n2)cc1 [Compound 247, 1-phenyl-N^3-(4-(ethyloxocarbonyl)phenyl)-N^5-methyl-1H-1,2,4-triazole-3,5-diamine]	IC50 [1]: > 20 µM
> 20 µM		CC1CCCN1CCOc1ccc(Nc2nc(N)n(-c3nc4ccccc4s3)n2)cc1 (stereo not shown) [Compound 22, 1-(benzo[d]thiazol-2-yl)-N^3-(4-(2-(2-methylpyrrolidin-1-yl)ethoxy)phenyl)-1H-1,2,4-triazole-3,5-diamine]	
< 1 µM		CC1CCCN1CCOc1ccc(Nc2nc(N)n(-c3cnc4ccccc4n3)n2)cc1 (stereo not shown) [Compound 21, N^3-(4-(2-(2-methylpyrrolidin-1-yl)ethoxy)phenyl)-1-(quinoxalin-2-yl)-1H-1,2,4-triazole-3,5-diamine]	
	< 1 µM	Cc1csc2c(-n3nc(Nc4ccc(N5CCN([C@H]6CC7CCC6C7)CC5)cc4)nc3N)nc(-c3ccncc3)nc12 (stereo partly drawn) [Compound 237, 1-(7-methyl-2-pyridin-4-ylthieno[3,2-d]pyrimidin-4-yl)-N^3-(4-(4-((2S)-bicyclo[2.2.1]heptan-2-yl)piperazin-1-yl)phenyl)-1H-1,2,4-triazole-3,5-diamine]	
> 20 µM		Nc1nc(Nc2ccc(OCCN3CCCC3)cc2)nn1-c1nc2ccccc2s1 [Compound 11, 1-(benzo[d]thiazol-2-yl)-N^3-(4-(2-(pyrrolidin-1-yl)ethoxy)phenyl)-1H-1,2,4-triazole-3,5-diamine]	
	< 1 µM	Cc1csc2c(-n3nc(Nc4ccc(N5CCN([C@H]6C[C@@H]7CC[C@H]6C7)CC5)c(Cl)c4)nc3N)ncnc12 [Compound 242, 1-(7-methylthieno[3,2-d]pyrimidin-4-yl)-N^3-(3-chloro-4-(4-((1S,2S,4R)-bicyclo[2.2.1]heptan-2-yl)piperazin-1-yl)phenyl)-1H-1,2,4-triazole-3,5-diamine]	
	> 20 µM	COc1cc2ncnc(-n3nc(Nc4ccc(N5CCN(C6CC7CCC6C7)CC5)c(F)c4)nc3N)c2cc1OC (stereo not shown) [Compound 123, N^3-(4-(4-(bicyclo[2.2.1]heptan-2-yl)piperazin-1-yl)-3-fluorophenyl)-1-(6,7-dimethoxyquinazolin-4-yl)-1H-1,2,4-triazole-3,5-diamine]	
1 to 10 µM		Nc1nc(Nc2ccc(OCCN3CCCC3)cc2)nn1-c1cccc(Cl)n1 [Compound 16, 1-(6-chloropyridin-2-yl)-N^3-(4-(2-(pyrrolidin-1-yl)ethoxy)phenyl)-1H-1,2,4-triazole-3,5-diamine]	
	> 20 µM	COc1cc2ncnc(-n3nc(Nc4ccc(N5CCN(C6CC7CCCC76)CC5)cc4)nc3N)c2cc1OC (stereo not shown) [Compound 124, N^3-(4-(4-(bicyclo[3.2.0]heptan-6-yl)piperazin-1-yl)phenyl)-1-(6,7-dimethoxyquinazolin-4-yl)-1H-1,2,4-triazole-3,5-diamine]	
	1 to 10 µM	Nc1nc(Nc2ccc(N3CCN(C4CCCCC4)CC3)cc2)nn1-c1cc2c(nn1)-c1ccccc1CC2 [Compound 115, N^3-(4-(4-cyclohexylpiperazin-1-yl)phenyl)-1-(5,6-dihydrobenzo[h]cinnolin-3-yl)-1H-1,2,4-triazole-3,5-diamine]	
1 to 10 µM		COC(=O)C1CCCN1CCOc1ccc(Nc2nc(N)n(-c3cnc4ccccc4n3)n2)cc1 (stereo not shown) [Compound 33, methyl 1-(2-(4-(5-amino-1-(quinoxalin-2-yl)-1H-1,2,4-triazol-3-ylamino)phenoxy)ethyl)-pyrrolidine-2-carboxylate]	
< 1 µM		CC1CCC(C)N1CCOc1ccc(Nc2nc(N)n(-c3cnc4ccccc4n3)n2)cc1 (stereo not shown) [Compound 46, N^3-(4-(2-(2,5-dimethylpyrrolidin-1-yl)ethoxy)phenyl)-1-(quinoxalin-2-yl)-1H-1,2,4-triazole-3,5-diamine]	
	1 to 10 µM	Nc1nc(Nc2ccc(N3CCN([C@H]4CC5CCC4C5)CC3)c(F)c2)nn1-c1cc(-c2ccccc2)ccn1 (stereo partly drawn) [Compound 230, 1-(4-phenylpyridin-2-yl)-N^3-(3-fluoro-4-(4-((2S)-bicyclo[2.2.1]heptan-2-yl)piperazin-1-yl)phenyl)-1H-1,2,4-triazole-3,5-diamine]	
